Source: patent US8871753B2, “Macrocyclic compounds and their use as kinase inhibitors” (Incyte Corporation, priority 2008, dated 2014)
Structures can show the parent of a compound that is named as a salt. Where two headings read alike, the source gives them in different places.

Columns and labels:
Assay type in all cases: biochemical
TYK2 = TYK2 (Homo sapiens, UniProt P29597); assay: TYK2 kinase inhibition (Table A1)
[1] = biological target: T1, human JAK2 (a.a. 828-1132) (Homo sapiens, UniProt O60674); assay: In vitro JAK kinase assay (HTRF, phosphorylation of a biotinylated peptide), JAK2
T1 construct: JAK2 (a.a. 828-1132); His tag (N); made in house; host or cells: insect cells (baculovirus)
Method in brief: (§1)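 Phosphorylation of a biotinylated peptide by the JAK kinase domain, detected by HTRF with Eu-Py20 and SA-APC. ATP was 90 μM for JAK1, 30 μM for JAK2 and 3 μM for JAK3. Reactions ran 1 h at room temperature and were stopped with EDTA, followed by 40 min antibody binding.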

[2] = biological target: T2, human JAK1 (a.a. 837-1142) (Homo sapiens, UniProt P23458); assay: In vitro JAK kinase assay (HTRF, phosphorylation of a biotinylated peptide), JAK1; conditions: read-out: JAK1 IC50
T2 construct: human JAK1 (a.a. 837-1142); His tag (N); made in house; host or cells: insect cells (baculovirus)
Method in brief: as §1

[3] = biological target: T3, Recombinant Human Anaplastic Lymphoma Kinase (Homo sapiens, UniProt Q9UM73); assay: ALK HTRF kinase assay
T3 construct: purchased Invitrogen, Carlsbad, Calif
Method in brief: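 Recombinant human ALK phosphorylated a biotinylated synthetic peptide. Phosphotyrosine was detected by TR-FRET between a Eu-labelled anti-phosphotyrosine antibody and streptavidin-allophycocyanin. IC50 values came from fitting signal against inhibitor concentration to a four-parameter logistic equation with variable Hill slope.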

[4] = biological target: T4, human JAK3 (a.a. 781-1124) (Homo sapiens, UniProt P52333); assay: In vitro JAK kinase assay (HTRF, phosphorylation of a biotinylated peptide), JAK3
T4 construct: JAK3 (a.a. 781-1124); His tag (N); made in house; host or cells: insect cells (baculovirus)
Method in brief: as §1

[5] = compound at a concentration of 500 nM or 1 mM (not specified), cells shown as percentage
[6] = method AA1 (30 μM ATP) or AA2 (1000 μM ATP), not stated per value
[7] = method AA1 (90 μM ATP) or AA2 (1000 μM ATP), not stated per value
[8] = compound at 500 nM or 1 mM, 90 μM ATP
[9] = method AA1 (3 μM ATP) or AA2 (1000 μM ATP), not stated per value
[10] = Table B1, cells without percent sign

TYK2, sequence (P29597 whole entry): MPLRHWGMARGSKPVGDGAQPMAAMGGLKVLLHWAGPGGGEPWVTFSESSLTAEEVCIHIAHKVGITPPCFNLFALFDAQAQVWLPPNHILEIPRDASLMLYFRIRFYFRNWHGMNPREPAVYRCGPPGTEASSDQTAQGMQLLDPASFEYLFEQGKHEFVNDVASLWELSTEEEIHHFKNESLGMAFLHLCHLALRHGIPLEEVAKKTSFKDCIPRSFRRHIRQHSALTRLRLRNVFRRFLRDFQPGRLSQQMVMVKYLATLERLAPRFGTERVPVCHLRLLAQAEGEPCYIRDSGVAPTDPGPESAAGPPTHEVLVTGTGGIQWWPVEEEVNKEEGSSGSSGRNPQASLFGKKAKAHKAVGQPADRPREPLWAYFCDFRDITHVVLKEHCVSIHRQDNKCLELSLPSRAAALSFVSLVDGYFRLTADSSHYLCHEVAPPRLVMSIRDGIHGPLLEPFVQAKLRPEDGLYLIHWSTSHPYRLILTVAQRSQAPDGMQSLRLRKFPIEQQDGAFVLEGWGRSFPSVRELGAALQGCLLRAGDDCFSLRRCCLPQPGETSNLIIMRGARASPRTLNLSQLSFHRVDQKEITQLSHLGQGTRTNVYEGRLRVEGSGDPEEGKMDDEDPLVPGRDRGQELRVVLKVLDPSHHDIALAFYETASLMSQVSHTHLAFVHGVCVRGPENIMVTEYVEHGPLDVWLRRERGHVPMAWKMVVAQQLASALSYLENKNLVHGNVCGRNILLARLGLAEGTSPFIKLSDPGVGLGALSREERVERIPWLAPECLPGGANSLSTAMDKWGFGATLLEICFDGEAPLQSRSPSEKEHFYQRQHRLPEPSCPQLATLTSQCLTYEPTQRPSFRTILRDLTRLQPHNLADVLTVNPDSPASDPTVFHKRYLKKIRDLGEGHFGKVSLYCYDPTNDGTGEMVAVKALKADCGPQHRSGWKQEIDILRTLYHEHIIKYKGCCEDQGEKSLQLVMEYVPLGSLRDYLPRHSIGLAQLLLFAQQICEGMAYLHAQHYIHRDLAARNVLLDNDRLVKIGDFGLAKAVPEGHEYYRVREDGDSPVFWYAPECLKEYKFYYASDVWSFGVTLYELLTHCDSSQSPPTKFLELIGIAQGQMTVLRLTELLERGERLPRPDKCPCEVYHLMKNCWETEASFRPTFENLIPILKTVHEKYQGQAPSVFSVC
T1 sequence (O60674 828-1132): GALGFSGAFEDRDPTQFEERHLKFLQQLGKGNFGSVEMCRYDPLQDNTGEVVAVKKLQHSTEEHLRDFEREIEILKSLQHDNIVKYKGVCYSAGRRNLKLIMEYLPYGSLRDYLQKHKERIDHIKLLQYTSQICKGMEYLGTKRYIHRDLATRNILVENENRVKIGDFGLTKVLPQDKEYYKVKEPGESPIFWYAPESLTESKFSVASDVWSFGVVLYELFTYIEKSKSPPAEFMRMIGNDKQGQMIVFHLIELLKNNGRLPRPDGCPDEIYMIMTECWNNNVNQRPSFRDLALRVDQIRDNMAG
T3 sequence (Q9UM73 19-1620): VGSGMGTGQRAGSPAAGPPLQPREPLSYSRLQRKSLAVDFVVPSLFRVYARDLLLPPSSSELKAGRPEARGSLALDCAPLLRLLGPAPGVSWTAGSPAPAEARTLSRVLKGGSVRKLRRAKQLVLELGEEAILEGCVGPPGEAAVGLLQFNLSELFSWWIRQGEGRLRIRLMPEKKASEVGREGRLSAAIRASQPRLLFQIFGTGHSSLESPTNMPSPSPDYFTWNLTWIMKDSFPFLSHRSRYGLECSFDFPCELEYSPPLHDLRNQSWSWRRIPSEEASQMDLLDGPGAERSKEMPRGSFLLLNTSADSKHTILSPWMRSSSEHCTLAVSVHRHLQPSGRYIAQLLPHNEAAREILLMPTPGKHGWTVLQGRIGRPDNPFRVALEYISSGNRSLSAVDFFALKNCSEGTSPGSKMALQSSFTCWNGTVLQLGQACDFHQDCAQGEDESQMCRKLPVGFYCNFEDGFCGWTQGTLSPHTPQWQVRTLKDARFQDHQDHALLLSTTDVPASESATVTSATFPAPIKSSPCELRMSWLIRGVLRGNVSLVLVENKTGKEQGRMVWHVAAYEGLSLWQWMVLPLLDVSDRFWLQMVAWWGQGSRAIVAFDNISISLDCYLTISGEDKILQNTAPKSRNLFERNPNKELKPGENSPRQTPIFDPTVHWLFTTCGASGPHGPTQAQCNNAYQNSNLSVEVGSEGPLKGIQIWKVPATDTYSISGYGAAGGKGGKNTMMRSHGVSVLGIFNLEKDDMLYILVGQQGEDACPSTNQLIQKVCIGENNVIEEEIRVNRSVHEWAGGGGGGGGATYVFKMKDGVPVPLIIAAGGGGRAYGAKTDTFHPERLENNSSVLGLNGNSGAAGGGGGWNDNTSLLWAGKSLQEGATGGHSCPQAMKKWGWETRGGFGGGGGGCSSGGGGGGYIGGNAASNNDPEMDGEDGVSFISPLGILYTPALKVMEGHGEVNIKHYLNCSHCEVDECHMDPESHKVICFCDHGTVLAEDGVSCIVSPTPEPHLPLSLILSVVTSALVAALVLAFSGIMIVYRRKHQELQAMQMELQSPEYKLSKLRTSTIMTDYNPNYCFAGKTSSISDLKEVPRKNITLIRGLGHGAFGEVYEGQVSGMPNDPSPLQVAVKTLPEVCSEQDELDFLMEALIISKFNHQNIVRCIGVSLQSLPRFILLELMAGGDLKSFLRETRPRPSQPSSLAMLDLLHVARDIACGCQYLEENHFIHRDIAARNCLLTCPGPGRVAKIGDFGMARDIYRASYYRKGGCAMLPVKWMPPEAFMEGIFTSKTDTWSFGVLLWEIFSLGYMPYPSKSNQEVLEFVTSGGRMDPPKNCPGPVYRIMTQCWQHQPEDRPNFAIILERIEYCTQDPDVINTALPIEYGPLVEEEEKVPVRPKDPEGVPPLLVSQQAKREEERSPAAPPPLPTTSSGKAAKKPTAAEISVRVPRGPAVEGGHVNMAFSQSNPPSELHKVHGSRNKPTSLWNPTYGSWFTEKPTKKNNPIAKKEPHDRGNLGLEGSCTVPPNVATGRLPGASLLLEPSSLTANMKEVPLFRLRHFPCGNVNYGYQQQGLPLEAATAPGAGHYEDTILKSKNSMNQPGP
T2 sequence (P23458 849-1154): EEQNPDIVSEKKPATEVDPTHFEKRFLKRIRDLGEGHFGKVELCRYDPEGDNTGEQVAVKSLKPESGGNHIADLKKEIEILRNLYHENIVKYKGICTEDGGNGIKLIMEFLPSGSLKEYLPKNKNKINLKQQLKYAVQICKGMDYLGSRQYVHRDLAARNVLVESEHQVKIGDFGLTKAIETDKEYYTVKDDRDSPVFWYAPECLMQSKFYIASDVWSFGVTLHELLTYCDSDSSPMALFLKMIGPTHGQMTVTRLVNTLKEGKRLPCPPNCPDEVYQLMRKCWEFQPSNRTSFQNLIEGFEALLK
T4 sequence (P52333 781-1124): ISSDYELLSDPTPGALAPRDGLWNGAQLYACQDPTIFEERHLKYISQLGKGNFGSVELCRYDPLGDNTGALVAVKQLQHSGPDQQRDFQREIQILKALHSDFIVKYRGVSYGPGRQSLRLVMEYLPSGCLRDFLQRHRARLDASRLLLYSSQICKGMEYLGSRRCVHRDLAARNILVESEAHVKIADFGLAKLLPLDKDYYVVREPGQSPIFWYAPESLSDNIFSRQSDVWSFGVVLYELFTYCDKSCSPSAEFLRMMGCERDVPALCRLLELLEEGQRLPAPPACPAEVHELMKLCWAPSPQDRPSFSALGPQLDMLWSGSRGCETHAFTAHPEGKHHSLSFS

Row | SMILES | IC50 (TYK2; Table B1) | IC50 ([1]; Table B1) | IC50 ([2]; Table B1) | ALK % of inhibition at a concentration of 500 nM or 1 mM [3, 5] | IC50 ([4]; Table B1) | IC50 (TYK2) | IC50 [1, 6] | IC50 [2, 7] | ALK % of inhibition at a concentration of 500 nM or 1 mM [3, 8] | IC50 [4, 9] | other results
1 | COc1cccc(N2CCC(CC(=O)Nc3ccc4cc3CCc3cncc(c3)Nc3ncc(Cl)c(n3)N4)CC2)c1C#N [Example A233, N-[6-Chloro-2,4,8,18,22-pentaazatetracyclo[14.3.1.1(3,7).1(9,13)]docosa-1(20),3(22),4,6,9(21),10,12,16,18-nonaen-12-yl]-2-[1-(2-cyano-3-methoxyphenyl)piperidin-4-yl]acetamide tris(trifluoroacetate)] |  |  |  |  |  | 26 nM | 19 nM | 0.4 nM | 24% | > 400 nM | 
2 | O=C(Nc1cc2cc(c1)OCCSc1cccc(c1)Nc1nc(ncc1Cl)N2)c1ccncc1 [Example D60, N-[6-Chloro-17-oxa-14-thia-2,4,8,24-tetraazatetracyclo[16.3.1.1(3,7).1(9,13)]tetracosa-1(22),3(24),4,6,9(23),10,12,18,20-nonaen-20-yl]isonicotinamide bis(trifluoroacetate)] |  |  |  |  |  |  |  |  |  |  | IC50 (TYK2; Table D1): 1.3 nM; IC50 ([1]; Table D1): 0.6 nM; IC50 ([2]; Table D1): 2 nM; IC50 ([3]; Table D1, 90 μM ATP): 130 nM; IC50 ([4]; Table D1): 5 nM
3 | Clc1cnc2nc1Nc1cccc(c1)SCCc1cccc(c1)N2 [Example D18, 6-Chloro-14-thia-2,4,8,23-tetraazatetracyclo[15.3.1.1(3,7).1(9,13)]tricosa-1(21),3(23),4,6,9(22),10,12,17,19-nonaene trifluoroacetate] |  |  |  |  |  |  |  |  |  |  | IC50 (TYK2; Table D1): 19 nM; IC50 ([1]; Table D1): 6.6 nM; IC50 ([2]; Table D1): 5.4 nM; IC50 ([3]; Table D1, 90 μM ATP): 327 nM; IC50 ([4]; Table D1): 24 nM
4 | Clc1cnc2nc1Nc1cccc(c1)SCCOc1cccc(c1)N2 [Example D11, 6-Chloro-17-oxa-14-thia-2,4,8,24-tetraazatetracyclo[16.3.1.1(3,7).1(9,13)]tetracosa-1(22),3(24),4,6,9(23),10,12,18,20-nonaene trifluoroacetate] |  |  |  |  |  |  |  |  |  |  | IC50 (TYK2; Table D1): 9.9 nM; IC50 ([1]; Table D1): 5.4 nM; IC50 ([2]; Table D1): 3.4 nM; IC50 ([3]; Table D1, 90 μM ATP): 480 nM; IC50 ([4]; Table D1): 24 nM
5 | O=C(Nc1ccc2cc1CCc1cccc(c1)Nc1ncc(Cl)c(n1)N2)C1CCCN(C(=O)Nc2ccccc2)C1 (centres unmarked) [Example A50, N(3)-[6-Chloro-2,4,8,22-tetraazatetracyclo[14.3.1.1(3,7).1(9,13)]docosa-1(20),3(22),4,6,9(21),10,12,16,18-nonaen-12-yl]-N(1)-phenylpiperidine-1,3-dicarboxamide trifluoroacetate] |  |  |  |  |  | 21 nM | 6.5 nM | 2.4 nM | 37% | 13 nM | 
6 | N#Cc1cccc(C(=O)N2CCC(CC(=O)Nc3ccc4cc3CCc3cccc(c3)Nc3ncc(Cl)c(n3)N4)CC2)c1 [Example A187, N-[6-Chloro-2,4,8,22-tetraazatetracyclo[14.3.1.1(3,7).1(9,13)]docosa-1(20),3(22),4,6,9(21),10,12,16,18-nonaen-12-yl]-2-[1-(3-cyanobenzoyl)piperidin-4-yl]acetamide trifluoroacetate] |  |  |  |  |  | > 200 nM | 132 nM | 52 nM | 37% | > 200 nM | 
7 | COc1cc(C(=O)N2CCC(CC(=O)Nc3ccc4cc3CCc3cncc(c3)Nc3ncc(Cl)c(n3)N4)CC2)on1 [Example A215, N-[6-Chloro-2,4,8,18,22-pentaazatetracyclo[14.3.1.1(3,7).1(9,13)]docosa-1(20),3(22),4,6,9(21),10,12,16,18-nonaen-12-yl]-2-{1-[(3-methoxyisoxazol-5-yl)carbonyl]piperidin-4-yl}acetamide bis(trifluoroacetate)] |  |  |  |  |  | 160 nM | 185 nM | 16 nM | 32% | > 200 nM | 
8 | CC(C)(C)C(=O)N1CCC(CC(=O)Nc2ccc3cc2CCc2cccc(c2)Nc2ncc(Cl)c(n2)N3)CC1 [Example A88, N-[6-Chloro-2,4,8,22-tetraazatetracyclo[14.3.1.1(3,7).1(9,13)]docosa-1(20),3(22),4,6,9(21),10,12,16,18-nonaen-12-yl]-2-[1-(2,2-dimethylpropanoyl)piperidin-4-yl]acetamide trifluoroacetate] |  |  |  |  |  | 47 nM | 24 nM | 14 nM | 22% | 86 nM | 

Now from value to compound, other results behind:

Row | IC50 (TYK2; Table B1) | IC50 ([1]; Table B1) | IC50 ([2]; Table B1) | ALK % of inhibition at a concentration of 500 nM or 1 mM [3, 5] | IC50 ([4]; Table B1) | IC50 (TYK2) | IC50 [1, 6] | IC50 [2, 7] | ALK % of inhibition at a concentration of 500 nM or 1 mM [3, 8] | IC50 [4, 9] | SMILES | other results
9 | 27 nM | 160 nM | 16 nM | 77% | > 400 nM |  |  |  |  |  | N#Cc1ccccc1N1CCN(C(=O)Nc2ccc3cc2CCc2cncc(c2)Nc2ncc(Cl)c(n2)N3)CC1 [Example B300, N-[6-Chloro-2,4,8,18,22-pentaazatetracyclo[14.3.1.1(3,7).1(9,13)]docosa-1(20),3(22),4,6,9(21),10,12,16,18-nonaen-12-yl]-4-(2-cyanophenyl)piperazine-1-carboxamide tris(trifluoroacetate)] | 
10 | 2.7 nM | 1.9 nM | 1.8 nM |  | 4.8 nM |  |  |  |  |  | O=C(Nc1ccc2cc1CCc1cccc(c1)Nc1ncc(Cl)c(n1)N2)c1ccsc1 [Example B62, N-[6-Chloro-2,4,8,22-tetraazatetracyclo[14.3.1.1(3,7).1(9,13)]docosa-1(20), 3(22),4,6,9(21),10,12,16,18-nonaen-12-yl]thiophene-3-carboxamide trifluoroacetate] | IC50 [3, 10]: 210 nM
11 | 180 nM | 130 nM | 3.8 nM |  | > 400 nM |  |  |  |  |  | Cc1nc(S(=O)(=O)N2CCC(CN(C)Cc3ccc4cc3CCc3cncc(c3)Nc3ncc(Cl)c(n3)N4)CC2)cn1C [Example B343, 1-[6-Chloro-2,4,8,18,22-pentaazatetracyclo[14.3.1.1(3,7).1(9,13)]docosa-1(20),3(22),4,6,9(21),10,12,16,18-nonaen-12-yl]-N-({1-[(1,2-dimethyl-1H-imidazol-4-yl)sulfonyl]piperidin-4-yl}methyl)-N-methylmethanamine tris(trifluoroacetate)] | ALK % of inhibition at a concentration of 500 nM or 1 mM ([3]; percentage inhibition of the example compound at a concentration of 500 nM or 1 mM (not specified which)): 42%
12 | 41 nM | 8.9 nM | 19 nM | 28% | 41 nM |  |  |  |  |  | Clc1cnc2nc1Nc1ccc(CN3CCNCC3)c(c1)CCc1cccc(c1)N2 [Example B224, 6-Chloro-12-(piperazin-1-ylmethyl)-2,4,8,22-tetraazatetracyclo[14.3.1.1(3,7).1(9,13)]docosa-1(20),3(22),4,6,9(21),10,12,16,18-nonaene tris(trifluoroacetate)] | 
13 | 173 nM | 72 nM | 90 nM | 4.9% | 695 nM |  |  |  |  |  | O=C(Nc1ccccn1)Nc1ccc2cc1CCc1cccc(c1)Nc1ncc(Cl)c(n1)N2 [Example B253, N-[6-Chloro-2,4,8,22-tetraazatetracyclo[14.3.1.1(3,7).1(9,13)]docosa-1(20),3(22),4,6,9(21),10,12,16,18-nonaen-12-yl]-N′-pyridin-2-ylurea bis(trifluoroacetate)] | 
14 | 541 nM | 273 nM | 9.8 nM | 16% | > 10000 nM |  |  |  |  |  | O=C(Nc1ccc2cc1CCc1cncc(c1)Nc1ncc(Cl)c(n1)N2)N[C@H]1CCN(C(=O)c2ccn[nH]2)C1 [Example B268, N-[6-Chloro-2,4,8,18,22-pentaazatetracyclo[14.3.1.1(3,7).1(9,13)]docosa-1(20),3(22),4,6,9(21),10,12,16,18-nonaen-12-yl]-N′-[(3S)-1-(1H-pyrazol-5-ylcarbonyl)pyrrolidin-3-yl]urea bis(trifluoroacetate)] | 
15 | 8 nM | 2.3 nM | 2.8 nM |  | 17 nM |  |  |  |  |  | O=C(Nc1ccc2cc1CCc1cccc(c1)Nc1ncc(Cl)c(n1)N2)c1ccno1 [Example B53, N-[6-Chloro-2,4,8,22-tetraazatetracyclo[14.3.1.1(3,7).1(9,13)]docosa-1(20), 3(22),4,6,9(21),10,12,16,18-nonaen-12-yl]isoxazole-5-carboxamide trifluoroacetate] | IC50 [3, 10]: 720 nM
16 | 6.8 nM | 2.3 nM | 0.62 nM | 9.3% | 16 nM |  |  |  |  |  | CSc1ccccc1NC(=O)Nc1ccc2cc1CCc1cccc(c1)Nc1ncc(Cl)c(n1)N2 [Example B107, N-[6-Chloro-2,4,8,22-tetraazatetracyclo[14.3.1.1(3,7).1(9,13)]docosa-1(20), 3(22),4,6,9(21),10,12,16,18-nonaen-12-yl]-N′-[2-(methylthio)phenyl]urea trifluoroacetate] | 
